Data taken from PMC10113271, “Rational peptide design for inhibition of the KIX–MLL interaction” (Scientific Reports, 2023).
pKd: −log10 of the molar value.

What was measured:
KIX [1] = target: T1, KIX (Mus musculus, UniProt P45481); assay: KIX binding by isothermal titration calorimetry (ITC); conditions: 30 °C
T1 construct: The DNA fragment of KIX (residues 586–672 of mouse CBP); 6xHis-tag with thrombin cleavage site (N); made in house; host or cells: E. coli BL21(DE3)pLysS
Experimental: For the expression of MLL TAD, E. coli BL21(DE3) competent cells were transformed with the plasmid and cultivated at 37 °C in 2 × YT liquid medium supplemented with ampicillin. When an optical density at 600 nm (OD600) of the cell culture reached 0.7–0.8, 1 mM isopropyl β-D-1-thiogalactopyranoside was added to induce protein expression. After 4 h of cultivation, the cells were harvested by centrifugation. The E. coli cell pellet was suspended with buffer HP (50 mM sodium phosphate [pH 7.4], 300 mM NaCl, 10 mM imidazole, and 6 M guanidine hydrochloride). The sonicated lysate was centrifuged at 4 °C, and the supernatant was filtered using a membrane filter and applied to a gravity column (50 mL) containing 5 mL of nickel-nitrilotriacetic acid (Ni–NTA) resin (Qiagen, Hilden, Germany). The column was washed with buffer HP and buffer AP (50 mM sodium phosphate [pH 7.4], 300 mM NaCl, and 10 mM imidazole) to remove impurities. To elute His-tag–GB1–MLL TAD for ITC and SPR measurements, 40 mL of buffer EP (50 mM sodium phosphate [pH 7.4], 300 mM NaCl, and 250 mM imidazole) was added to the column. […] Thus, His-tag–GB1–MLL TAD was used in the ITC measurements, with the exception of the four mutants (I2849L, D2851L, K2855R, and T2857I). To obtain the MLL TAD peptide without His-tag–GB1 for CD measurements, we washed the column, to which the His-tag–GB1–MLL TAD was attached, with buffer TP (50 mM sodium phosphate [pH 7.4] and 300 mM NaCl), added 150 units of thrombin to the column for digestion of the His-tag–GB1, and eluted the MLL TAD peptide with buffer TP. After Ni–NTA column purification, anion exchange chromatography was performed to further purify the aforementioned four mutants without His-tag–GB1 using the AKTAprime plus chromatography system (Cytiva, Marlborough, MA, USA; 10 mM sodium phosphate [pH 6.0] and 0–1 M NaCl). Due to the fact that the CD spectra of the four mutants were unchanged before and after the anion exchange chromatography, we omitted this procedure for other mutants.
Expression and purification of the KIX protein was performed in the same way as MLL, except that E. coli BL21(DE3)pLysS competent cells and 2 × YT liquid medium with ampicillin and chloramphenicol were used. After Ni–NTA column purification, gel filtration chromatography was performed using a Superdex 200 pg column (Cytiva) and the ITC buffer (20 mM Tris–acetate [pH 7.0] and 50 mM NaCl).
ITC measurements were performed using MicroCal iTC200 (Malvern Panalytical Ltd., Malvern, United Kingdom) at 30 °C. Samples were sufficiently dialyzed with the ITC buffer before measurements. The 600 μM MLL solution was titrated into the cell containing 45 µM KIX. The data were analyzed using the Origin 7 software (OriginLab Corp., Northampton, MA, USA; https://www.originlab.com) to obtain the Kd (M), ΔH (kcal/mol), and stoichiometry of binding, N. The ΔG (kcal/mol) and ΔS (kcal/mol/K) were obtained as follows:2 ΔG=-RTln1/Kd 3 ΔS=ΔH-ΔG/T where R is the gas constant, and T is the temperature.

[2] = Helix contents estimated from far-UV CD spectra; assay type: physicochemical; conditions: 30 μM peptide without His-tag–GB1, 30 °C, pH 7.0, CONTINLL with SDP48 reference set
Experimental: CD spectra were measured using a J-805 spectropolarimeter (JASCO, Tokyo, Japan) from 200 to 250 nm in a quartz cuvette with a 1-mm path length at 30 °C. Protein concentrations were 30 μM. The CD intensity was converted to MRE using the following equation:1 MRE(deg cm^2dmol^-1)=CD(mdeg)/N·c(M)·l(mm) where N is the number of residues, c is the protein concentration, and l is the path length.
The helix contents of the MLL TAD peptide were calculated from the far-UV CD spectra using the CONTINLL program[42] with the reference data set containing soluble and denatured proteins (SDP48) in the CDPro package.

KIX [3] = conditions: previously reported value for binding between KIX and MLL TAD; cited from earlier work
Description: Previous studies have reported several inhibitors that bind the MLL site of KIX, including isoxazolidine derivatives, which are small molecule compounds that mimic the function of the TADs of transcriptional activators, and natural products such as sekikaic acid and lobaric acid[21],[22].

T1 sequence (P45481 586-672): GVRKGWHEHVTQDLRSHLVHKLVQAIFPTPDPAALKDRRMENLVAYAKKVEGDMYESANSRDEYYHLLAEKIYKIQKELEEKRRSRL

With `CC[C@H](C)[C@H](NC(=O)[C@H](CC(=O)O)NC(=O)[C@H](CO)NC(=O)[C@@H]1CCCN1C(=O)[C@H](CC(C)C)NC(=O)[C@@H](NC(=O)[C@H](CC(N)=O)NC(=O)CN)[C@@H](C)CC)C(=O)N[C@@H](CCSC)C(=O)N[C@@H](CC(=O)O)C(=O)N[C@@H](Cc1ccccc1)C(=O)N[C@H](C(=O)N[C@@H](CC(C)C)C(=O)N[C@@H](CCCCN)C(=O)N[C@@H](CC(N)=O)C(=O)N[C@H](C(=O)N1CCC[C@H]1C(=O)N[C@@H](CO)C(=O)N[C@@H](CCSC)C(=O)N[C@@H](CCC(N)=O)C(=O)N[C@@H](C)C(=O)N[C@@H](CC(C)C)C(=O)NCC(=O)N[C@@H](CCC(=O)O)C(=O)N[C@@H](CO)C(=O)N1CCC[C@H]1C(=O)N[C@@H](CCC(=O)O)C(=O)N[C@@H](CO)C(=O)N[C@@H](Cc1ccc(O)cc1)C(=O)O)[C@@H](C)O)C(C)C` [wild type, reference compound] the “N (stoichiometry of binding)” value (KIX [1]; pH 7.0, mean ± standard error of triplicate or more) was 1.02 ± 0.01, the “− TΔS” value (KIX [1]; entropy term upon KIX binding, pH 7.0, ΔS=(ΔH-ΔG)/T, mean ± standard error of triplicate or more) was 5.2 ± 0.1 kcal/mol and the helix contents [2] was ~ 5.7%. For the same compound, the pKd (KIX [3]) was 5.68.
